Columns and labels:
RXFP1 and Gαs = tested on: T1, RXFP1 and Gαs; test: Real-time kinetic BRET, RXFP1-Rluc8 / Gαs; type: cell-based, human; conditions: HEK293T co-expressing RXFP1-Rluc8, Gγ2-Venus, Gβ1, Gαs; H2 relaxin 100 nM, ML290 100 nM or 10 μM
T1 construct: forward primer encodes M-D-S-K-G-S-S, not the native RXFP1 start (N); expressed in transfected cells; host or cells: HEK293T cells stably expressing RXFP1-Rluc8, transiently co-transfected with the G protein subunits
Method: HEK293 cell were seeded in 6-well plates at a density of 600,000 cells per well and transfected with constructs encoding the tagged receptors and signalling proteins. 24 h later cells were harvested in HEPES-buffered phenol red-free medium containing 5% FBS and plated out in a white 96-well plate (Nunc) that was incubated at 37 °C under 5% CO2. BRET assays were performed 48 h after transfection as described previously, [52]. Medium was replaced with phenol-red-free-DMEM supplemented with 5% FBS plus 5 μM coelenterazine h. BRET measurements were made at 37 °C using the PHERAstar Omega plate reader with Omega software (BMG LABTECH, Germany). Filtered light emissions were simultaneously measured in each of the “donor wavelength window” (475 ± 15 nm for Rluc8 with coelenterazine h) and “acceptor wavelength window” (535 ± 15 nm for Venus). Cells were assayed before and after treatment with ligands or 5% FBS phenol-red-free-DMEM medium containing 0.01% w/v BSA (vehicle). The BRET signal was calculated as previously described.

RXFP1 [1] = test: cGMP accumulation in human primary vascular cells and cardiac fibroblasts; type: cell-based; conditions: HUAEC, cells that do not express cell surface RXFP1; 30 min
Method: cAMP and cGMP accumulation was determined as previously described, [16]. Briefly, HEK293 cells were plated in 96-well plates (5 × 10^4 cells/well) and human primary cells were plated into 24-well plates (1 × 10^5 cells/well) and grown overnight to achieve a confluent monolayer. Prior to stimulation, HEK cells were serum-starved in DMEM containing 0.5% FBS v/v and primary cells were serum-starved in M199 medium for 4–6 hours. Where appropriate, cells were pre-incubated with mSIRK (5 μM, 30 min), mSIRK control peptide L9A (5 μM, 30 min), gallein (100 μM, 30 min), Wortmannin (100 nM, 30 min), NF023 (10 μM, 30 min) and NF449 (10 μM, 30 min). Levels of cAMP and cGMP were detected according to the manufacturer’s instructions (Perkin-Elmer, Australia).

MMP-2 = test: Gelatin zymography of MMP-2 in human cardiac fibroblasts; type: cell-based; conditions: HCFs; 72 hours; ML290 1 μM, H2 relaxin 0.1 μM
Method: Changes in matrix metalloproteinases-2 (MMP-2; gelatinase A) activity that were secreted from HCFs into the cell media over a 72 hour experimental period, were assessed by gelatin zymography as described previously, [45]. […] Cells were used between passages 1–4, while all experiments were performed four separate times in duplicate. The optical density (OD) of MMP-2 was measured using a GS710 Calibrated Imaging Densitomer (Bio-Rad Laboratories, Hercules, CA, USA), and the mean ± SE OD of MMP-2 in each treated group was expressed as the relative ratio of the values in the untreated control group.

[2] = design: method as in PMID 23764525; conditions: cited from earlier work
[3] = design: method as in PMID 23764525; conditions: cited from earlier work; remark: listed apart in the source
RXFP1 [4] = target: T2, RXFP1 (Homo sapiens, UniProt Q9HBX9); test: 125I-H2 relaxin radioligand binding in HEK-RXFP1 cells; design: expressed in transfected cells; host or cells: HEK293T / HEK293 cells stably expressing RXFP1 (HEK-RXFP1)
T2 sequence (Q9HBX9 1-757): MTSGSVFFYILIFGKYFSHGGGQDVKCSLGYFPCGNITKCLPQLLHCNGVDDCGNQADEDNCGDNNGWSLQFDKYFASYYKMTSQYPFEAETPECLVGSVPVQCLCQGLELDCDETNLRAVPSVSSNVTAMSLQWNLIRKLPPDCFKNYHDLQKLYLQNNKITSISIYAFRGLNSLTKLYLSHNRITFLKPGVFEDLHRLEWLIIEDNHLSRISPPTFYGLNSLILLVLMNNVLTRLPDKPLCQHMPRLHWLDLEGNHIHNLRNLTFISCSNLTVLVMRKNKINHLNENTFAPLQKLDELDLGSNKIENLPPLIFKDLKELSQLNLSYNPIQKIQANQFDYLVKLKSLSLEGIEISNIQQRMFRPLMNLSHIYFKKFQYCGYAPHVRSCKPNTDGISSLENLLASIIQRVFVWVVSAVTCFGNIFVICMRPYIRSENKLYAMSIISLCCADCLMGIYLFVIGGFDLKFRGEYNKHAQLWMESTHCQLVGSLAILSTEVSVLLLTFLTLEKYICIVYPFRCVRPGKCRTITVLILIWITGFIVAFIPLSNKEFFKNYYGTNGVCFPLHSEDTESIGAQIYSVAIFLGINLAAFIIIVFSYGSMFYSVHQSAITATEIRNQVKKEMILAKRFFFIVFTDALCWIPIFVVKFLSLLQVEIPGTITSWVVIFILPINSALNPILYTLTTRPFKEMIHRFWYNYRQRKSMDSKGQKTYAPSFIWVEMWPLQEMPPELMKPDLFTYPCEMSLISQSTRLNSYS
Method: Competition radioligand binding studies were performed in HEK-RXFP1 cells as described previously. […] After 90 min incubation at room temperature, the reaction was terminated with the removal of medium and washing with cold PBS. Cells were digested with 0.1 M NaOH and radioactivity counted on the γ-counter.

RXFP1 [5] = target: T2, RXFP1; test: JNK1/2 phosphorylation (Surefire) in HEK-RXFP1 cells; type: cell-based; design: expressed in transfected cells; host or cells: HEK293T / HEK293 cells stably expressing RXFP1 (HEK-RXFP1); conditions: up to 45 min, H2 relaxin 100 nM, ML290 100 nM or 10 μM
Method: p-ERK1/2, p-p38MAPK and p-JNK1/2 was measured using the Surefire ERK, p38 and JNK kits (TGR BioSciences, Australia) as described previously, [16]. Briefly, HEK-RXFP1 cells were plated into 96-well plates (5 × 10^4 cells/well) and primary cells grown in 24-well plates (1 × 10^5 cells/well) overnight to achieve a confluent monolayer. Prior to stimulation, HEK293 cells were serum-starved with DMEM containing 0.5% (v/v) FBS and primary cells in M199 medium for 4–6 hours. […] Levels of p-ERK1/2, p-p38MAPK and p-JNK1/2/3 were detected as per manufacturer’s instructions (Perkin-Elmer, Australia).

CC(C)Oc1ccccc1C(=O)Nc1ccccc1C(=O)Nc1cccc(S(=O)(=O)C(F)(F)F)c1 [ML290, 2-Isopropoxy-N-(2-(3-(trifluoromethylsulfonyl)phenylcarbamoyl)phenyl) benzamide]
ligand-induced BRET, RXFP1 - Gαs interaction (RXFP1 and Gαs): promoted interactions | cGMP accumulation (RXFP1 [1]): no effect | increase of MMP-2 expression versus untreated controls (MMP-2): ~40% | cytotoxicity [2]: little cytotoxicity | microsomal stability [3]: high microsomal stability | 125I-H2 relaxin specific binding to RXFP1 in presence of ML290 (RXFP1 [4]; 125I-H2 relaxin 100pM, increased from 102.7 ± […]): 135.2 ± 6.5% | effect on the affinity of H2 relaxin (RXFP1 [4]; ML290 1 μM): no significant effect | JNK1/2 phosphorylation, time course (RXFP1 [5]): no effect
